The target in one experiment is Trypsin (Sus scrofa, UniProt P00761). As to the kind of experiment: porcine trypsin inhibitors, dose response, selectivity assay for Rce1 protease inhibitor project, biochemical, quenched peptide fluorescence, cherry-pick (AID 488789).
For a further experiment, the target named is CAAX prenyl protease 2 (Saccharomyces cerevisiae S288c, UniProt Q03530). The format is biochemical.
The next experiment addresses Wee1-like protein kinase (Homo sapiens, UniProt P30291). As to the kind of experiment: G2/M cell cycle arrest in HeLa, late-stage follow-up, mechanism study for Wee1 degradation inhibitor project, FACS, panel member Wee1 Degradation (AID 2088).
Experiment [1] addresses G2/mitotic-specific cyclin-B1 (Homo sapiens, UniProt P14635). Briefly: G2/M cell cycle arrest in HeLa, late-stage follow-up, mechanism study for Wee1 degradation inhibitor project, FACS, panel member Cyclin B Degradation (AID 2088).
Experiment [2] has as its target DNA dC->dU-editing enzyme APOBEC-3A (Homo sapiens, UniProt P31941). Briefly: APOBEC3A DNA deaminase inhibitors, dose response, biochemical (AID 504722). Format: functional.
In experiment [3] the target is DNA dC->dU-editing enzyme APOBEC-3G (Homo sapiens, UniProt Q9HC16). Briefly: Dose Response confirmation of small molecule APOBEC3G DNA Deaminase Inhibitors via a fluorescence-based single-stranded DNA deaminase assay. [Related pubchem assays (depositor defined):AID493012, AID493028]. Format: functional.
Chain of DNA dC->dU-editing enzyme APOBEC-3G (Q9HC16 whole entry): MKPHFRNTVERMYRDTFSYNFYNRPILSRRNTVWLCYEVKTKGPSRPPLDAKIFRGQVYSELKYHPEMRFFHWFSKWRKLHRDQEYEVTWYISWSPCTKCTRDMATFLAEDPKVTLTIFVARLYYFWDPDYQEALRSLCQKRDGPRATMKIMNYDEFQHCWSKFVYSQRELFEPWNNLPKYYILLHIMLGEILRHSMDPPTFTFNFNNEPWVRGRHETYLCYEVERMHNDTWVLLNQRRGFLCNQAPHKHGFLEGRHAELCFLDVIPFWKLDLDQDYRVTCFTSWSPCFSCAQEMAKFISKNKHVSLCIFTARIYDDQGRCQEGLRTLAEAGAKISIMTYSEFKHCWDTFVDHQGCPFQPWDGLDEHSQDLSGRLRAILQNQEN
Experiment [4] is described as follows: inhibitors of firefly luciferase expression or activity, dose response, H4 neuroglioma cells, luminescence (AID 1990). The format is functional, cell-based.
Experiment [5] relates to BJ. Briefly: cytotoxicity toward BJ-TERT fibroblasts, dose response, cell-based, RAS-independent, luminescence (AID 1933). Format: functional. To be noted: Homo sapiens.
Experiment [6] is described as follows: Luminescence Cell-Based Dose Response HTS to Identify Inhibitors of 5'UTR Stem-Loop Driven Prion Protein mRNA Translation in H4 Neuroglioblastoma Cells. [Related pubchem assays: 1827 (Project Summary), 1813 (Primary HTS)]. Format: functional.
The nature of experiment [7]: inhibitors of SNCA 5'UTR-driven reporter translation, confirmation, H4 neuroglioma cells, luminescence (AID 1988). The format is functional, cell-based.
Experiment [8] deals with BJ. As to the kind of experiment: cells. To be noted: Homo sapiens. Format: functional, cell-based.
The nature of experiment [9]: growth suppression of PTEN-null colon cells, dose response, cell-based, HCT116 PTEN knockout (AID 1047).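 Note: HCT116 colon tumor cells with PTEN knocked out; cells exposed to compound for 60 hours before readout; potency for loss of cell viability measured by luminescence.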 Format: functional.
In another experiment the target is Galanin receptor type 2 (Homo sapiens, UniProt O43603). Briefly: Dose Response cell-based high-throughput screening assay to identify agonists of galanin receptor 2 (GALR2). [Related pubchem assays: 864 ]. Format: functional.
Experiment [10] is described as follows: growth suppression of beta-catenin-knockout colon cells, dose response, cell-based, HCT116, human colon tumor (AID 1045).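 Note: HCT116 colon tumor cells with beta catenin knocked out; cells exposed to compound for 60 hours.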 Format: functional.
Experiment [11] has as its system BJ. As to the kind of experiment: cytotoxicity toward BJ-TERT-LT-ST fibroblasts, dose response, cell-based, RAS-independent, luminescence (AID 1935).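 Note: BJ fibroblasts immortalized with TERT plus LT and ST oncogenes.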 The format is functional. The note with it: Homo sapiens.
Experiment [12] can be described thus: cytotoxicity toward DRD oncogenic fibroblasts, dose response, cell-based, non-viral oncogenic, luminescence (AID 1934). Format: functional. The note with it: Homo sapiens.
Experiment [13] in a line: Cytotoxicity screening for potential Inhibitors of Bacterial Capsule Biogenesis. [Related pubchem assays (depositor defined):AID488970]. The format is functional.
Experiment [14] has as its system BJ. Briefly: cytotoxicity toward Ras-transformed BJeLR fibroblasts, dose response, cell-based, alamar blue fluorescence, cherrypicked samples (AID 2631).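 Note: confirmatory dose-response assay in RAS-dependent BJ fibroblasts engineered with TERT, LT and ST, with cytotoxicity read by fluorescence.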 The format is functional. The note with it: Homo sapiens. In general terms: Alamar Blue is a resazurin reagent that responds to reducing activity.
Another experiment concerns the target Melanocortin receptor 4 (Homo sapiens, UniProt P32245). Format: functional, cell-based.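 Note: Cell-based assay with luminescence read-out, confirmatory dose-response testing for agonist activity of biased ligands at MC4R; human U2OS cells with tagged receptor and beta-arrestin; potency of agonists that increase receptor coupling to beta-arrestin.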
For another experiment, the system named is J774.A1. Briefly: Confirmation of image-based Screening Assay for Inhibitors of Phagocytosis. [Related pubchem assays (depositor defined):AID1029, AID1643]. Format: functional, cell-based. To be noted: Mus musculus.
The nature of experiment [15]: cytotoxicity in HEK-293T cells, dose response, cytotoxicity control for TCR NF-kB inhibitor project, luminescence, T-cell screen hits (AID 489026).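 Note: cells exposed to compound about 14 hours before the viability readout.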 The format is functional, cell-based.
In experiment [16] the target is G-protein coupled receptor 35 (Homo sapiens, UniProt Q9HC97). Briefly: GPR35 antagonists blocking zaprinast-driven arrestin recruitment, primary screen, imaging, U2OS, beta-arrestin-GFP, zaprinast agonist (AID 2058).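 Note: antagonist potency meaning inhibition of agonist-induced arrestin redistribution.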 Format: functional.
Experiment [17] concerns the target T1, Rac GTPase-activating protein 1 (Homo sapiens, UniProt Q9H0H5).
T1 sequence (Q9H0H5 whole entry): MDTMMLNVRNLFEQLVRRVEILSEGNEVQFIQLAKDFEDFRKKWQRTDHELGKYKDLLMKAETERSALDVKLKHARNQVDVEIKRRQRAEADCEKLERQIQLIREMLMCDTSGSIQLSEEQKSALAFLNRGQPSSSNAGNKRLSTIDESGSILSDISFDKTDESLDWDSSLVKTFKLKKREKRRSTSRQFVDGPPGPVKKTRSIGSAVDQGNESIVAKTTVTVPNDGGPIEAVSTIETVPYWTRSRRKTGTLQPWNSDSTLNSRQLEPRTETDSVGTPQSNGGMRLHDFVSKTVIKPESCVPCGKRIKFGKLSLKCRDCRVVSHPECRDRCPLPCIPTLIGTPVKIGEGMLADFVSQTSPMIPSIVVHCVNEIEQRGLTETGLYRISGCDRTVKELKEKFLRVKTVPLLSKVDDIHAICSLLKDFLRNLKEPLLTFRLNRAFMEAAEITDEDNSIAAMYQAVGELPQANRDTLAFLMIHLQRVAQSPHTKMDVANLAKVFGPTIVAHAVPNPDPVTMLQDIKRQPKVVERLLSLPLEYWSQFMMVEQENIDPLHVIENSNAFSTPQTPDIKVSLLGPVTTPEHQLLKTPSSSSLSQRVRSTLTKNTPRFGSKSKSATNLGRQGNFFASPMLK
Briefly: MgcRacGAP GTPase-activating activity inhibitors, confirmation, biochemical, ADP Hunter fluorescence, primary and confirmatory (AID 624330). The format is functional.

In experiment [18] the target is Neurotensin receptor type 1 (Homo sapiens, UniProt P30989). Format: functional.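 Note: Image-based confirmatory dose-response assay measuring agonist activity at NTR1; NTR1-expressing U2OS osteosarcoma cells imaged for beta-arrestin GFP spot formation; agonist potency where compounds increase beta-arrestin recruitment.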
Chain of Neurotensin receptor type 1 (P30989 whole entry): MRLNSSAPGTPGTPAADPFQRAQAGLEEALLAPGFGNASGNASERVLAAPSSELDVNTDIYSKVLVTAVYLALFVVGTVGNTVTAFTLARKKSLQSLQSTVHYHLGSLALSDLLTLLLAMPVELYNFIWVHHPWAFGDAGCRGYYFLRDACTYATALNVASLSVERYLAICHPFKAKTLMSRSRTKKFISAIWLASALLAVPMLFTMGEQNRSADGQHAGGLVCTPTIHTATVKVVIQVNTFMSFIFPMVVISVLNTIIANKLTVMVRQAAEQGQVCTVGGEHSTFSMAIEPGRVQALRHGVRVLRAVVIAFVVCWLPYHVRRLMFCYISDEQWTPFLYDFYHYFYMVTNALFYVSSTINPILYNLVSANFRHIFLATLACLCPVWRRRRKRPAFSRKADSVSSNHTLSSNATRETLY
For the next experiment, the system named is INS1. Briefly: beta cell apoptosis inhibitors, cytokine rescue, dose response, luminescence, retest (AID 449756).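 Note: cell death triggered by IL-1 beta plus TNF-alpha plus IFN-gamma mixture; protective hits raise ATP signal compared with cytokine alone wells.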 Format: functional, cell-based. To be noted: Rattus norvegicus.
Experiment [19] deals with T2, Delta-type opioid receptor (Homo sapiens, UniProt P41143). As to the kind of experiment: HTS Image-Based Screen for Antagonists of the DOR Receptor. [Related pubchem assays (depositor defined):AID1777, AID1785, AID1786, AID2133]. The format is functional.
T2 sequence (P41143 whole entry): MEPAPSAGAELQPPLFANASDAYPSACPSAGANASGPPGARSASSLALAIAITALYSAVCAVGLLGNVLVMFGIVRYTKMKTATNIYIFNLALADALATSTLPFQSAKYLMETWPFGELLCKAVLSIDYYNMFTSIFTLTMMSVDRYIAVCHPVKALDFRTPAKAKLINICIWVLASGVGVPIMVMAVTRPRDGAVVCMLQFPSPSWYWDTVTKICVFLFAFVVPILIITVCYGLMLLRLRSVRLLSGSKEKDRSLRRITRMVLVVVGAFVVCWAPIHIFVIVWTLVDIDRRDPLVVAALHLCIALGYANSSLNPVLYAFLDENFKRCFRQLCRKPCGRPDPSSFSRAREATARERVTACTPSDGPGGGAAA
Another experiment addresses Mu-type opioid receptor (Homo sapiens, UniProt P35372). Briefly: HTS Image-Based Screen for Agonists of the MOR Receptor. [Related pubchem assays (depositor defined):AID1777, AID1785, AID1786, AID2133]. Format: functional.
Experiment [20] concerns the target T2, Delta-type opioid receptor. As to the kind of experiment: HTS Image-Based Screen for Agonists of the DOR Receptor. [Related pubchem assays (depositor defined):AID1777, AID1786, AID2133]. The format is functional.
The target of experiment [21] is T3, Kappa-type opioid receptor (Homo sapiens, UniProt P41145). The format is functional.
T3 sequence (P41145 whole entry): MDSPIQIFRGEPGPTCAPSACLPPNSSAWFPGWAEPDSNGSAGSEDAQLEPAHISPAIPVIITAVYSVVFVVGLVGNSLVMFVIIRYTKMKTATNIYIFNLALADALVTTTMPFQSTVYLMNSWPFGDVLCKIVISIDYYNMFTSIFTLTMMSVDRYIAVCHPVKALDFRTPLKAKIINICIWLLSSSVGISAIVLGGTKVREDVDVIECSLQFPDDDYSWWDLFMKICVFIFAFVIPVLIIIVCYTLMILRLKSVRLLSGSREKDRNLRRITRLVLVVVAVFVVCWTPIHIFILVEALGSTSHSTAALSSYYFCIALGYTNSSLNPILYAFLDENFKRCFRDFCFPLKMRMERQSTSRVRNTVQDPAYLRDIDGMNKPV
The target of experiment [22] is T3, Kappa-type opioid receptor. The format is functional. The source holds these as a separate data set.
Experiment [23] can be described thus: NIH-3T3 fibroblast cytotoxicity, dose response, cytotoxicity control, cell-based, fluorescence, Alamar Blue, secondary assay (AID 2327).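 Note: NIH-3T3 mouse fibroblasts cultured with fluconazole at 8 µg/mL.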 Format: functional.
Experiment [24] is described as follows: C. albicans growth with fluconazole, confirmation, fluorescence, retest (AID 2467). Format: functional, cell-based.
Experiment [25] addresses Intestinal-type alkaline phosphatase (Mus musculus, UniProt P24822). Briefly: PubChem AID 488874. Format: functional.
In experiment [26] the target is T4, Intestinal-type alkaline phosphatase (Homo sapiens, UniProt P09923). As to the kind of experiment: human intestinal alkaline phosphatase activators, dose response, biochemical, luminescence, uHTS hits (AID 463120). Format: functional.
T4 sequence (P09923 whole entry): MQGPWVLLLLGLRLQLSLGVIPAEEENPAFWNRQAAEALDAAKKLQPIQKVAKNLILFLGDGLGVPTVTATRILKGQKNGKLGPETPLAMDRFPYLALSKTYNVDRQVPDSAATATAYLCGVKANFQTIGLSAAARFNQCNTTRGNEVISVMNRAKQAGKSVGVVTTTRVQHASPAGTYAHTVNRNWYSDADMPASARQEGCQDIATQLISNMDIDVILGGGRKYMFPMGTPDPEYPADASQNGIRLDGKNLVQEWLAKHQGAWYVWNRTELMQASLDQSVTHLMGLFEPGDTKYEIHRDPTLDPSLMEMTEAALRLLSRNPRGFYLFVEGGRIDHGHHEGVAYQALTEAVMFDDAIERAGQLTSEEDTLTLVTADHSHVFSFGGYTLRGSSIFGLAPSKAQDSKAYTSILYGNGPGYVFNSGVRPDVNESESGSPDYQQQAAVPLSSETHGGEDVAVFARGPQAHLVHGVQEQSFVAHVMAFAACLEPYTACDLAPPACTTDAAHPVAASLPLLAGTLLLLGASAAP
In experiment [27] the target is T4, Intestinal-type alkaline phosphatase. As to the kind of experiment: human IAP activators, dose response, biochemical, luminescent, uHTS hits, set 2 (AID 488817).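 Note: potency of activators that raise enzyme activity.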 The format is functional.
The target in experiment [28] is T5, Alkaline phosphatase, tissue-nonspecific isozyme (Homo sapiens, UniProt P05186).
T5 sequence (P05186 whole entry): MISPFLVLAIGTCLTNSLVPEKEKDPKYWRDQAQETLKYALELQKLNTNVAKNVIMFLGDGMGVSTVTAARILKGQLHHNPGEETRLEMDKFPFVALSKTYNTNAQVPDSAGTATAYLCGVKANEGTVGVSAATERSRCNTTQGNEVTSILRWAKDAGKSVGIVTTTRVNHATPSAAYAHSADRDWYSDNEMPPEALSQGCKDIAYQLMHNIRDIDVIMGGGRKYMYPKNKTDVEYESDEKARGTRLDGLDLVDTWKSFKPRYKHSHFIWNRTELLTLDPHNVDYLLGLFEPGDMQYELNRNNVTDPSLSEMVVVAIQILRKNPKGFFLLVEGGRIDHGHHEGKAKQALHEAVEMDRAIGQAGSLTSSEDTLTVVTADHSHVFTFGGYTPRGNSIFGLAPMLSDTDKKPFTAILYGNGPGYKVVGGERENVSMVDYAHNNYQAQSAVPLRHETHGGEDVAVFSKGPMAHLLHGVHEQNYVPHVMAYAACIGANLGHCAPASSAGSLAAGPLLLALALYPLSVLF
Briefly: TNAP enzyme activators, dose response, selectivity assay for human IAP activator project, biochemical, TNAP isozyme, human IAP uHTS hits (AID 488886).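 Note: potency of compounds raising TNAP activity as a selectivity check on IAP activators.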 Format: functional.

Experiment [29] in a line: human group III sPLA2 inhibitors, dose response, biochemical, QFRET, IC50 (AID 743457).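 Note: green fluorescence rise as the enzyme cleaves BODIPY PC-A2 in liposomes; potency for inhibition of the enzyme.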

Active and inactive are the calls of the source.

This is an account of results in ChEMBL document CHEMBL1201862, “PubChem BioAssay data set” (2004).

In general, AC50 refers to the midpoint of the concentration-response curve, whichever way the signal moves. What is called EC50 is the concentration at which the effect is half-maximal. By IC50 is commonly meant the midpoint of a concentration-inhibition curve. As usually defined, the CC50 is the concentration giving 50% cytotoxicity.

Chain of Wee1-like protein kinase (P30291 whole entry): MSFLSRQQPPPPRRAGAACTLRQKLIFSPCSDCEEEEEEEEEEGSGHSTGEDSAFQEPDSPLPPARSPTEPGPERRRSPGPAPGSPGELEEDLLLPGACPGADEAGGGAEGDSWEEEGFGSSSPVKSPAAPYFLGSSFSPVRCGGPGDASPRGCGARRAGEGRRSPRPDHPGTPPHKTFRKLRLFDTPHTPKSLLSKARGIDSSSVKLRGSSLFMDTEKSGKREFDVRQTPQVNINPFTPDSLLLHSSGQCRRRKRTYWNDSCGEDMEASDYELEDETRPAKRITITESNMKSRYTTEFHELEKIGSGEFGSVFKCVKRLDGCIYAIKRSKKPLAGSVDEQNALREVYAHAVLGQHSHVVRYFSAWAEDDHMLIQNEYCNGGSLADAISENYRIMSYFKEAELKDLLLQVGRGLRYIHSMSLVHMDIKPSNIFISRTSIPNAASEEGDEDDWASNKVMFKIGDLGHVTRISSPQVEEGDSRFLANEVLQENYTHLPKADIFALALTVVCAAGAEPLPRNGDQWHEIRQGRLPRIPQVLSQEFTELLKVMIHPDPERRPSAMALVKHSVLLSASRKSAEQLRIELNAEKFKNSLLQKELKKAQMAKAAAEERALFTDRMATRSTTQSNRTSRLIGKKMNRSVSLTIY
Chain of Trypsin (P00761 whole entry): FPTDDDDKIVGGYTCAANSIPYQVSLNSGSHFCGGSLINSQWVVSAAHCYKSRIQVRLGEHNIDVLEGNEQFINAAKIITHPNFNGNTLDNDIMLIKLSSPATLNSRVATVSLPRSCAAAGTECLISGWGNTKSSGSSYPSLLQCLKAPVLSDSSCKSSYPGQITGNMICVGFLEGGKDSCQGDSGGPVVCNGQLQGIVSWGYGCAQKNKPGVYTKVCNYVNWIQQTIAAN
Chain of Melanocortin receptor 4 (P32245 whole entry): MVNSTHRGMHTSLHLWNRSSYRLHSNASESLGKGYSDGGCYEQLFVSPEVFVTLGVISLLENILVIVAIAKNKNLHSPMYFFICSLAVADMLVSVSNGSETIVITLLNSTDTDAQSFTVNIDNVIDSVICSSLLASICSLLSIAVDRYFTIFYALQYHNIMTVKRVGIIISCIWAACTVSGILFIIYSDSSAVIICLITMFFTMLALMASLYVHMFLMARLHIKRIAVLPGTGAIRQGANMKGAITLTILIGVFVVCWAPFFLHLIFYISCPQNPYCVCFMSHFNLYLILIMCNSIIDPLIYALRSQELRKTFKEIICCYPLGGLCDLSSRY
Chain of CAAX prenyl protease 2 (Q03530 whole entry): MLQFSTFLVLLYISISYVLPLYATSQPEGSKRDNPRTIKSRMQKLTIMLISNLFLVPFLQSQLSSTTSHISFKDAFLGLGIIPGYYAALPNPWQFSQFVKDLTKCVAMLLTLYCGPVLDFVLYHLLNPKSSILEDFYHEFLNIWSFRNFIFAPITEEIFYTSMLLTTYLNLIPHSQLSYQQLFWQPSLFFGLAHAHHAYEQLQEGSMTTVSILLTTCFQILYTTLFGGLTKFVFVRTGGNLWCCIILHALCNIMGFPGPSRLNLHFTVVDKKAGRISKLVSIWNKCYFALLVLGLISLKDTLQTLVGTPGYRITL
Chain of Intestinal-type alkaline phosphatase (Mus musculus, UniProt P24822) (P24822 whole entry): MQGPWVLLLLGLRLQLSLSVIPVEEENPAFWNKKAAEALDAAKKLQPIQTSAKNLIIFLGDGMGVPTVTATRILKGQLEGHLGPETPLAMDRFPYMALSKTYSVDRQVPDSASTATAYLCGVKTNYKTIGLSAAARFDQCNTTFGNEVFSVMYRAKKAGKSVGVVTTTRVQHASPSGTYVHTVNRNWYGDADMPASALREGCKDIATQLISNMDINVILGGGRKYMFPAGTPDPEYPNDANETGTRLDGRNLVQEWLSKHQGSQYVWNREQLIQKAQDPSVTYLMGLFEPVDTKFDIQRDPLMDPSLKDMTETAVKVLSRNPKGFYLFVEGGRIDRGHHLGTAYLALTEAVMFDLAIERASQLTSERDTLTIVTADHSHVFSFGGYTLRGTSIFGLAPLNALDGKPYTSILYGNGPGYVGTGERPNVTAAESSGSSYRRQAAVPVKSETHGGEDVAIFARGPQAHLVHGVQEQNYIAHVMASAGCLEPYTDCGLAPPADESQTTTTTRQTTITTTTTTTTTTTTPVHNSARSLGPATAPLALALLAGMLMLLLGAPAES
Chain of DNA dC->dU-editing enzyme APOBEC-3A (P31941 whole entry): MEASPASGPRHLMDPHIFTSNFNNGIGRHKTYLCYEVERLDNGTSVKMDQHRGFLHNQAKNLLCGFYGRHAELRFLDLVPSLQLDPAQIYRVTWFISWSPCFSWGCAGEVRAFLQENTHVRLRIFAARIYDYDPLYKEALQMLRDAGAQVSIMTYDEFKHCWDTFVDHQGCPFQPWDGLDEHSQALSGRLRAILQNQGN
Chain of G2/mitotic-specific cyclin-B1 (P14635 whole entry): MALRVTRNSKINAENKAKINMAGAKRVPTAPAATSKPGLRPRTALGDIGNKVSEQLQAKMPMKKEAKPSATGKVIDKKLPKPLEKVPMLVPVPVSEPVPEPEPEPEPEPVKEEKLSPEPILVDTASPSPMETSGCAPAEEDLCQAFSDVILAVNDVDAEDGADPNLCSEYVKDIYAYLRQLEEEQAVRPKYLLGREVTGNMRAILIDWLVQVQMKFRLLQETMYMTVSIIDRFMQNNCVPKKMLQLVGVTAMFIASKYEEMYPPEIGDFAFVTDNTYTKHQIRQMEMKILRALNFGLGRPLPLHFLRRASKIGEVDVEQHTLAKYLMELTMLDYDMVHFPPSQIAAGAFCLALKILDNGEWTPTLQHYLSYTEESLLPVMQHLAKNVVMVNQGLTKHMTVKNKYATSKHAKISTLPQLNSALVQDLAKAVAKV

Regarding `COc1ccc(-c2cc3nc(C)c(CCC(=O)N4CCN(c5ccccn5)CC4)c(C)n3n2)c(OC)c1`, the AC50 on Trypsin was 7.2 µM (active); on CAAX prenyl protease 2, > 100 µM (inactive).
Take `Cc1cc(O)nc(-n2nc(C)cc2NC(=O)c2cccc(Br)c2)n1`: the EC50 (at Wee1-like protein kinase; in experiment [1]) was > 49.7 µM (inactive) throughout.
`Cn1c(S)nnc1-c1ccc(C(C)(C)C)cc1`: the IC50 was > 100 µM (inactive) in [2] and 4.79 µM (active) in [3].
Turning to `CCCOc1ccc(C(=O)C(CCC(CNCC)C(=O)c2ccc(OCCC)cc2)CNCC)cc1` (stereo not given), the concentration for a half-maximal effect (EC50) is > 120 µM (not active) in experiment [4]; 2.57 µM (inconclusive) in the experiment with BJ [5]; 8.92 µM (active) in experiment [6]; 6.08 µM (active) in experiment [7]; 4.61 µM (active) in the experiment on BJ [8]; 1.76 µM (active) in experiment [9]. The EC50 on Galanin receptor type 2 was > 55.7 µM (not active); in [10] it was 1.88 µM (active); in the experiment with BJ [11], 2.72 µM (inconclusive); in experiment [12], 3.31 µM (active); in the experiment with BJ [14] it was 0.513 µM (active); at Melanocortin receptor 4, > 89.2 µM (inactive). Moreover, the CC50 in experiment [13] is 3.18 µM (active).
In the case of `COC(=O)c1[nH]c2c(c1C)C(=O)CC(c1cccs1)C2` (stereo not given), the EC50 in [4] was 4.98 µM (active); in the experiment with BJ [5] it was 1.02 µM (active); in experiment [6] it was 7.34 µM (active); in experiment [7], 0.469 µM (active); with BJ [8], 3.72 µM (inconclusive); in the experiment on BJ [11], 0.873 µM (inconclusive). The figures for the EC50 (in experiment [12]; with BJ [14]) were 0.912 µM (active) and 0.299 µM (active), respectively. The figures for the IC50 (in the experiment with J774.A1; in [15]) were 0.116 µM (active) and > 80 µM (inactive), respectively.
Consider `Nc1[nH]c2cc([N+](=O)[O-])ccc2c1-c1ccccn1`, for which the values for the IC50 in experiment [16] and in experiment [17] were 0.787 µM (active) and 82.9 µM (active), respectively.
`c1ccc(C(c2ccccc2)N2CCN(c3nc4ccccc4n4cnnc34)CC2)cc1`: the EC50 in experiment [18] was 26.4 µM (inactive). For the same compound, the AC50 in the experiment on INS1 is 4.56 µM (active).
For the compound `Cc1ccc(Cl)cc1NC(=S)N(Cc1cccs1)C1CCCC1`, the IC50 in experiment [19] is > 32 µM (inactive). Besides, the EC50 on Mu-type opioid receptor is > 32 µM (inactive); in experiment [20], > 32 µM (inactive); in experiment [21] it was 14 µM; in experiment [22], 13.1 µM.
With `O=C(NNC(=S)NC1CCCCC1)c1ccccc1Br`, the EC50 in [23] was 21.7 µM (inconclusive); in [24], 2.94 µM (active); in experiment [26], 12.1 µM (active); in experiment [27], 14.9 µM (active); in [28], 16.1 µM (active). Moreover, the values for the IC50 in [25] and in experiment [29] were 50.3 µM (active) and > 122 µM (inactive), respectively.
